Source: ChEMBL document CHEMBL1141121, “Selective inhibition of MCF-7(piGST) breast tumors using glutathione transferase-derived 2-methylene-cycloalkenones” (J Med Chem, 2005)

How the values were obtained:
Format in all cases: cell-based
[1] = molecular target: T1, Glutathione S-transferase P (Homo sapiens, UniProt P09211); experiment: Ratio between MCF7wt to MCF-7piGST cells overexpressing in GSTP1-1
Target sequence in this assay (P09211 2-210 limits assumed): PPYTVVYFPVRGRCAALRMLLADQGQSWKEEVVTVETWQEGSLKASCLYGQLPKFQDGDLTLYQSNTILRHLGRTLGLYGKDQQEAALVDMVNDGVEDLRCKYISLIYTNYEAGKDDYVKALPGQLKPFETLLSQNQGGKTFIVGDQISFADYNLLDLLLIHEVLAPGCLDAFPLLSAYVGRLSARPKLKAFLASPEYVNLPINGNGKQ

[2] = molecular target: T1, Glutathione S-transferase P; experiment: Inhibitory concentration against GSTP1-1 over-expressed in MCF7wt cells
Target sequence in this assay (P09211 whole entry): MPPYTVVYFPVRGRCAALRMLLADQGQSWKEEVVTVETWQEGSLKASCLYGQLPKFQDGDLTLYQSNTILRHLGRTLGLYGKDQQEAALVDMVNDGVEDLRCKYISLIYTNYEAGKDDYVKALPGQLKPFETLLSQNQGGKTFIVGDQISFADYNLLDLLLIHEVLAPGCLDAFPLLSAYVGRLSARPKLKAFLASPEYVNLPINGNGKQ

[3] = molecular target: T1, Glutathione S-transferase P; experiment: Inhibitory concentration against GSTP1-1 over-expressed in MCF-7piGST cells
Target sequence in this assay (P09211 whole entry): as above

Row | Compound | Ratio [1] | IC50 [2] | IC50 [3]
1 | C/C=C/OC(=O)CC1=CCCCCC1=O | 4.2 | 10.8 µM | 2.6 µM
2 | C/C=C/C(=O)OCC1=CCCCC1=O | 2.2 | 29.6 µM | 13.2 µM
